Experimental data published in patent publication EP0920487B1, “COMPOSITION AND METHOD FOR INHIBITING THE DEPOSITION OF PROTEIN ON CONTACT LENS” (BAUSCH & LOMB INCORPORATED, priority 1996, dated 1997).

System: lysozyme
Assay: SPE protein-binding inhibition screening (Sep-Pak Accell Plus CM solid-phase extraction cartridge, absorbance of eluent at 280 nm)
Parameters: species or system hen
Conditions: test compound 1% in BBS; then 0.05% lysozyme; corrected for BBS control
Excerpt: In another aspect of the present invention, selected polyquaternium polymers simultaneously satisfy the dual requirements of both (i) meeting ophthalmological safety standards for an in-the-eye contact-lens solution at concentrations of 1000 ppm and (ii) inhibiting protein binding to a contact lens. The safety requirements can be determined according to the so-called NRDR (neutral red dye release) assay for cytotoxicity described in the Examples. In particular, the polyquaternium polymer should have an NRDR assay rating of L or less at a level of 1000 ppm., preferably L or less at a level of 500 ppm (dry weight of polymer, correcting for water content of the available polymer material). […] The material in this extraction cartridge is a weak cation exchanger that contains a silica support coated with a polymer having carboxymethyl groups. This extraction cartridge is first treated with a 1.0% solution of the polyquaternium polymer in borate-buffered saline followed by exposing the solid phase extraction cartridge to 0.05% lysozyme. The amount of protein-binding inhibition is determined compared to a control solution. […] Preferably, the SPE protein-binding inhibition is at least 20%, more preferably at least 30%, most preferably at least 35%.
This Experiment illustrates the measurement of the protein-displacing effects of various polyquaternium polymers. Among the polyquaternium polymers tested, the polymers varied with respect to the comonomers making up the polymer, the respective proportion of comonomers, and/or the molecular weight of the polymer. The following screening procedure was used. […] The absorbance measurements were conducted by (1) taking an initial absorbance with BBS in a 1 cm cuvette, which reading should be 0.000, re-autozeroing if necessary with BBS, (2) rinsing and filling the cuvette with 0.05% lysozyme solution and reading the absorbance to obtain the "maximum inhibition value', and (3) reading the absorbances for the solutions in the test tubes used to collect the eluents from the test cartridges. […]

| Substance | Average % SPE Binding Inhibition [%] |
| --- | --- |
| benzalkonium bromide [BAB] | 8 |
| benzalkonium chloride [BAK] | 3 |
| lauryl methyl gluceth-10 hydroxy-propyl dimonium chloride [Gluquat® 125] | 2 |
